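Growth conditions: 96-well plates. Treatment: test compound, 48 hours, 5 concentrations. Analysis: linear interpolation between bracketing concentrations; unreached endpoints set to highest concentration. GI50: concentration for 50% inhibition of growth. The concentration for full growth arrest is given as TGI.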
Legend:
Assay in all cases: NCI anticancer screen, dose series, 48 h
SNB-75 CNS = system: SNB-75 CNS
K-562 leukemia = system: K-562 leukemia
HCT-15 colon = system: HCT-15 colon
OVCAR-5 ovarian = system: OVCAR-5 ovarian
OVCAR-8 ovarian = system: OVCAR-8 ovarian
NCI-H226 lung = system: NCI-H226 lung
M14 melanoma = system: M14 melanoma
UACC-62 melanoma = system: UACC-62 melanoma
SK-MEL-5 melanoma = system: SK-MEL-5 melanoma
SF-268 CNS = system: SF-268 CNS
RXF 393 renal = system: RXF 393 renal
SN12C renal = system: SN12C renal
HS 578T breast = system: HS 578T breast
MDA-MB-231 breast = system: MDA-MB-231 breast
MDA-MB-468 breast = system: MDA-MB-468 breast
NCI-H460 lung = system: NCI-H460 lung
UACC-257 melanoma = system: UACC-257 melanoma
CCRF-CEM leukemia = system: CCRF-CEM leukemia
A549 NSCLC = system: A549 NSCLC
MOLT-4 leukemia = system: MOLT-4 leukemia
BT-549 breast = system: BT-549 breast
COLO 205 colon = system: COLO 205 colon
786-0 renal = system: 786-0 renal
NCI-H23 lung = system: NCI-H23 lung
HCC-2998 colon = system: HCC-2998 colon
HOP-62 NSCLC = system: HOP-62 NSCLC
MALME-3M melanoma = system: MALME-3M melanoma
MDA-MB-435 = system: MDA-MB-435
HCT-116 colon = system: HCT-116 colon
HOP-92 NSCLC = system: HOP-92 NSCLC
SNB-19 CNS = system: SNB-19 CNS
HL-60(TB) leukemia = system: HL-60(TB) leukemia
SF-295 CNS = system: SF-295 CNS
CAKI-1 renal = system: CAKI-1 renal
TK-10 renal = system: TK-10 renal
SF-539 CNS = system: SF-539 CNS
OVCAR-4 ovarian = system: OVCAR-4 ovarian
IGROV1 ovarian = system: IGROV1 ovarian
HT29 colon = system: HT29 colon
DU-145 prostate = system: DU-145 prostate
SK-MEL-28 melanoma = system: SK-MEL-28 melanoma
SK-OV-3 ovarian = system: SK-OV-3 ovarian
OVCAR-3 ovarian = system: OVCAR-3 ovarian
ACHN renal = system: ACHN renal
T-47D breast = system: T-47D breast
RPMI-8226 leukemia = system: RPMI-8226 leukemia
EKVX NSCLC = system: EKVX NSCLC
NCI/ADR-RES ovarian = system: NCI/ADR-RES ovarian
SW-620 colon = system: SW-620 colon
MCF7 breast = system: MCF7 breast
U251 CNS = system: U251 CNS
KM12 colon = system: KM12 colon
PC-3 prostate = system: PC-3 prostate
SR leukemia = system: SR leukemia
NCI-H522 lung = system: NCI-H522 lung
UO-31 renal = system: UO-31 renal
LOX IMVI melanoma = system: LOX IMVI melanoma

`Cc1cc(C(NC(=O)CCCCCNc2cccc3c2C(=O)N(C2CCC(=O)CC2=O)C3=O)c2cccc(N(C)C)c2)c(O)c2ncccc12` (centres undefined) showed a GI50 (SNB-75 CNS) of 766 nM, a TGI (SNB-75 CNS) greater than 58500 nM and a GI50 (K-562 leukemia) of 824 nM. For the same compound, the TGI (K-562 leukemia) was greater than 58500 nM, the GI50 (HCT-15 colon) was 910 nM and the TGI (HCT-15 colon) was greater than 58500 nM. For the same compound, the GI50 (OVCAR-5 ovarian) was 1900 nM, the TGI (OVCAR-5 ovarian) was greater than 58500 nM and the GI50 (OVCAR-8 ovarian) was 555 nM. The TGI (OVCAR-8 ovarian) was greater than 58500 nM, the GI50 (NCI-H226 lung) was 782 nM and the TGI (NCI-H226 lung) was greater than 15800 nM. For the same compound, the GI50 (M14 melanoma) was 585 nM, the TGI (M14 melanoma) was 3780 nM and the GI50 (UACC-62 melanoma) was 1330 nM. It also gave a TGI (UACC-62 melanoma) of 4630 nM, a GI50 (SK-MEL-5 melanoma) of 822 nM and a TGI (SK-MEL-5 melanoma) of 1830 nM. For the same compound, the GI50 (SF-268 CNS) was 1410 nM, the TGI (SF-268 CNS) was greater than 58500 nM and the GI50 (RXF 393 renal) was 1550 nM. It also gave a TGI (RXF 393 renal) greater than 58500 nM, a GI50 (SN12C renal) of 1210 nM and a TGI (SN12C renal) greater than 58500 nM. For the same compound, the GI50 (HS 578T breast) was 482 nM, the TGI (HS 578T breast) was greater than 58500 nM and the GI50 (MDA-MB-231 breast) was 22.2 nM. The TGI (MDA-MB-231 breast) was 136 nM, the GI50 (MDA-MB-468 breast) was 27.8 nM and the TGI (MDA-MB-468 breast) was 462 nM. For the same compound, the GI50 (NCI-H460 lung) was 1140 nM, the TGI (NCI-H460 lung) was greater than 58500 nM and the GI50 (UACC-257 melanoma) was 2450 nM. For the same compound, the TGI (UACC-257 melanoma) was greater than 58500 nM, the GI50 (CCRF-CEM leukemia) was 26.8 nM and the TGI (CCRF-CEM leukemia) was 1360 nM. For the same compound, the GI50 (A549 NSCLC) was 2120 nM, the TGI (A549 NSCLC) was greater than 58500 nM and the GI50 (MOLT-4 leukemia) was 34.6 nM. For the same compound, the TGI (MOLT-4 leukemia) was greater than 58500 nM, the GI50 (BT-549 breast) was 85.1 nM and the TGI (BT-549 breast) was 930 nM. It also gave a GI50 (COLO 205 colon) of 1080 nM, a TGI (COLO 205 colon) greater than 58500 nM and a GI50 (786-0 renal) of 1360 nM. It also gave a TGI (786-0 renal) greater than 58500 nM, a GI50 (NCI-H23 lung) of 1540 nM and a TGI (NCI-H23 lung) greater than 58500 nM. For the same compound, the GI50 (HCC-2998 colon) was 941 nM, the TGI (HCC-2998 colon) was 3760 nM and the GI50 (HOP-62 NSCLC) was 547 nM. For the same compound, the TGI (HOP-62 NSCLC) was greater than 12600 nM, the GI50 (MALME-3M melanoma) was 97.5 nM and the TGI (MALME-3M melanoma) was 957 nM. It also gave a GI50 (MDA-MB-435) of 2220 nM, a TGI (MDA-MB-435) greater than 58500 nM and a GI50 (HCT-116 colon) of 932 nM. It also gave a TGI (HCT-116 colon) greater than 58500 nM, a GI50 (HOP-92 NSCLC) of 36.5 nM and a TGI (HOP-92 NSCLC) of 524 nM. It also gave a GI50 (SNB-19 CNS) of 1560 nM, a TGI (SNB-19 CNS) greater than 58500 nM and a GI50 (HL-60(TB) leukemia) of 19.9 nM. The TGI (HL-60(TB) leukemia) was 1670 nM, the GI50 (SF-295 CNS) was 1530 nM and the TGI (SF-295 CNS) was greater than 58500 nM. It also gave a GI50 (CAKI-1 renal) of 1140 nM, a TGI (CAKI-1 renal) greater than 58500 nM and a GI50 (TK-10 renal) of 2670 nM. The TGI (TK-10 renal) was greater than 58500 nM, the GI50 (SF-539 CNS) was 1830 nM and the TGI (SF-539 CNS) was 30800 nM. For the same compound, the GI50 (OVCAR-4 ovarian) was 1480 nM, the TGI (OVCAR-4 ovarian) was greater than 58500 nM and the GI50 (IGROV1 ovarian) was 686 nM. The TGI (IGROV1 ovarian) was 6170 nM, the GI50 (HT29 colon) was 2360 nM and the TGI (HT29 colon) was greater than 58500 nM. For the same compound, the GI50 (DU-145 prostate) was 3030 nM, the TGI (DU-145 prostate) was greater than 58500 nM and the GI50 (SK-MEL-28 melanoma) was 2060 nM. The TGI (SK-MEL-28 melanoma) was greater than 58500 nM, the GI50 (SK-OV-3 ovarian) was 1530 nM and the TGI (SK-OV-3 ovarian) was 5020 nM. It also gave a GI50 (OVCAR-3 ovarian) of 1230 nM, a TGI (OVCAR-3 ovarian) greater than 58500 nM and a GI50 (ACHN renal) of 1920 nM. For the same compound, the TGI (ACHN renal) was greater than 58500 nM, the GI50 (T-47D breast) was 739 nM and the TGI (T-47D breast) was greater than 58500 nM. The GI50 (RPMI-8226 leukemia) was 1580 nM, the TGI (RPMI-8226 leukemia) was greater than 58500 nM and the GI50 (EKVX NSCLC) was 1360 nM. For the same compound, the TGI (EKVX NSCLC) was greater than 58500 nM, the GI50 (NCI/ADR-RES ovarian) was 5440 nM and the TGI (NCI/ADR-RES ovarian) was greater than 58500 nM. For the same compound, the GI50 (SW-620 colon) was 564 nM, the TGI (SW-620 colon) was greater than 58500 nM and the GI50 (MCF7 breast) was 982 nM. It also gave a TGI (MCF7 breast) greater than 58500 nM, a GI50 (U251 CNS) of 1390 nM and a TGI (U251 CNS) greater than 58500 nM. The GI50 (KM12 colon) was 1730 nM, the TGI (KM12 colon) was greater than 58500 nM and the GI50 (PC-3 prostate) was 103 nM. For the same compound, the TGI (PC-3 prostate) was greater than 58500 nM, the GI50 (SR leukemia) was 922 nM and the TGI (SR leukemia) was greater than 58500 nM. The GI50 (NCI-H522 lung) was 1800 nM, the TGI (NCI-H522 lung) was greater than 58500 nM and the GI50 (UO-31 renal) was 745 nM. It also gave a TGI (UO-31 renal) greater than 25400 nM, a GI50 (LOX IMVI melanoma) of 1200 nM and a TGI (LOX IMVI melanoma) greater than 16100 nM.
